The experiment concerns the target Carbonic anhydrase 9 (Homo sapiens, UniProt Q16790).
For orientation: Ki means a dissociation constant, usually derived from enzyme kinetics or from competition with a known ligand. The low end stands for tighter binding, the high end for weaker binding. As for `CC(=O)OC[C@H]1O[C@@H](NS(N)(=O)=O)[C@H](OC(C)=O)[C@@H](OC(C)=O)[C@@H]1OC(C)=O`, the Ki amounted to 7.7 nM. This counts as single-digit nanomolar.

Compound `CC(=O)OC[C@H]1O[C@@H](NS(N)(=O)=O)[C@H](OC(C)=O)[C@@H](OC(C)=O)[C@H]1OC(C)=O` displayed a Ki of 7.2 nM.

For `CC(=O)OC[C@H]1O[C@@H](NS(N)(=O)=O)[C@@H](OC(C)=O)[C@@H](OC(C)=O)[C@@H]1OC(C)=O`, the Ki came to 5 nM.

Compound `C[C@H]1O[C@@H](NS(N)(=O)=O)[C@@H](O)[C@@H](O)[C@@H]1O` had a Ki of 3140 nM.

On to `CC(=O)OC[C@H]1O[C@@H](NS(N)(=O)=O)C[C@@H](OC(C)=O)[C@@H]1OC(C)=O`, for which the Ki came to 13 nM.

In turn, `CC(=O)OC[C@H]1O[C@@H](NS(N)(=O)=O)C[C@@H](OC(C)=O)[C@H]1OC(C)=O` had a Ki of 16 nM.

These data come from ChEMBL document CHEMBL1806440, “N-β-glycosyl sulfamides are selective inhibitors of the cancer associated carbonic anhydrase isoforms IX and XII” (Bioorg Med Chem Lett, 2011).
